Patent publication US20230085307A1, “PYRIDAZINONE COMPOUND AND HERBICIDE” (NISSAN CHEMICAL CORPORATION, priority 2019, published 2023)

Legend:
[1] = tested on: persian speedwell; assay: Test Example 4: herbicidal effect by soil treatment (Table 19, symbol R); type: in vivo, Persian speedwell (Veronica persica); settings: amount of applied herbicide 320 g/ha
How it was run: (§1)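 Scoring uses the grading scale of an earlier test, three weeks post-application. Treatment consists of spraying a diluted emulsion formulation across the surface of sterilized diluvial soil in which seeds are buried near 1.5 cm deep; boxes are kept in a greenhouse between 25° C. and 30° C.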

[2] = tested on: velvetleaf; assay: Test Example 4: herbicidal effect by soil treatment (Table 19, symbol M); type: in vivo, velvetleaf (Abutilon theophrasti); settings: amount of applied herbicide 320 g/ha
How it was run: as §1

[3] = tested on: green foxtail; assay: Test Example 4: herbicidal effect by soil treatment (Table 19, symbol G); type: in vivo, green foxtail (Setaria viridis); settings: amount of applied herbicide 320 g/ha
How it was run: as §1

[4] = tested on: persian speedwell; assay: Test Example 5: herbicidal effect by foliage application, plastic box (Table 20, symbol R); type: in vivo, Persian speedwell (Veronica persica); settings: foliage application, AAH 320 g/ha, evaluated three weeks after application
How it was run: (§2)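 Post-emergence foliar test in sterilized diluvial soil. Compound applied as water-diluted emulsion at a predetermined rate to 14-day-old plants; evaluation at three weeks.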

[5] = tested on: barnyard grass; assay: Test Example 4: herbicidal effect by soil treatment (Table 19, symbol H); type: in vivo, barnyard grass (Echinochloa crus-galli); settings: amount of applied herbicide 320 g/ha
How it was run: as §1

[6] = tested on: oval-leafed pondweed; assay: Test Example 1: herbicidal activity, application before weed generation under submerged conditions (Table 16, symbol C); type: in vivo, oval-leafed pondweed (Monochoria vaginalis); settings: 320 g/ha applied herbicide
How it was run: (§3)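 Emulsion formulation, water-diluted to set dose, was put onto the flooded surface (4 cm depth, alluvial soil) the same day weeds were sown and 2.5-leaf rice transplanted. After 3 weeks at 25-30 °C under glass, each species was rated 0 (≤5% kill) to 5 (≥90% kill).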

[7] = tested on: redroot pigweed; assay: Test Example 4: herbicidal effect by soil treatment (Table 19, symbol N); type: in vivo, redroot pigweed (Amaranthus retroflexus); settings: amount of applied herbicide 320 g/ha
How it was run: as §1

[8] = tested on: Japanese bulrush; assay: Test Example 1: herbicidal activity, application before weed generation under submerged conditions (Table 16, symbol B); type: in vivo, Japanese bulrush (Schoenoplectus juncoides); settings: 320 g/ha applied herbicide
How it was run: as §3

[9] = tested on: green foxtail; assay: Test Example 5: herbicidal effect by foliage application, plastic box (Table 20, symbol G); type: in vivo, green foxtail (Setaria viridis); settings: foliage application, AAH 320 g/ha, evaluated three weeks after application
How it was run: as §2

[10] = tested on: oval-leafed pondweed; assay: Test Example 2: herbicidal activity, application during weed generation under submerged conditions (Table 17, symbol C); type: in vivo, oval-leafed pondweed (Monochoria vaginalis); settings: AAH 320 g/ha; application during weed generation, submerged conditions
How it was run: (§4)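 Alluvial soil in Wagner pots was flooded to 4 cm depth and sown with the three weeds together; pots were kept in a greenhouse at 25° C. to 30° C. At the one to two leaf stage, an emulsion formulation diluted in water to a set rate went onto the water surface; scored three weeks later.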

[11] = tested on: Japanese bulrush; assay: Test Example 2: herbicidal activity, application during weed generation under submerged conditions (Table 17, symbol B); type: in vivo, Japanese bulrush (Schoenoplectus juncoides); settings: AAH 320 g/ha; application during weed generation, submerged conditions
How it was run: as §4

[12] = tested on: southern crabgrass; assay: Test Example 5: herbicidal effect by foliage application, plastic box (Table 20, symbol F); type: in vivo, southern crabgrass (Digitaria ciliaris); settings: foliage application, AAH 320 g/ha, evaluated three weeks after application
How it was run: as §2

[13] = tested on: blackgrass; assay: Test Example 5: herbicidal effect by foliage application, plastic box (Table 20, symbol J); type: in vivo, blackgrass (Alopecurus myosuroides); settings: foliage application, AAH 320 g/ha, evaluated three weeks after application
How it was run: as §2

[14] = tested on: barnyard grass; assay: Test Example 3: herbicidal effect by foliage application, Wagner pot (Table 18, symbol H); type: in vivo, barnyard grass (Echinochloa crus-galli); settings: amount of applied herbicide 320 g/ha
How it was run: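 Plants were sown in alluvial soil held under 0.1–0.5 cm standing water and grown 14 days in a greenhouse at 25–30 °C. An emulsifiable formulation, water-diluted to the set dose, was then sprayed onto the foliage, and effects were scored three weeks later using previously defined criteria.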

[15] = tested on: velvetleaf; assay: Test Example 5: herbicidal effect by foliage application, plastic box (Table 20, symbol M); type: in vivo, velvetleaf (Abutilon theophrasti); settings: foliage application, AAH 320 g/ha, evaluated three weeks after application
How it was run: as §2

[16] = tested on: blackgrass; assay: Test Example 4: herbicidal effect by soil treatment (Table 19, symbol J); type: in vivo, blackgrass (Alopecurus myosuroides); settings: amount of applied herbicide 320 g/ha
How it was run: as §1

[17] = tested on: windgrass; assay: Test Example 5: herbicidal effect by foliage application, plastic box (Table 20, symbol L); type: in vivo, windgrass (Apera spica-venti); settings: foliage application, AAH 320 g/ha, evaluated three weeks after application
How it was run: as §2

SMILES | herbicidal effect on R: persian speedwell [1] | herbicidal effect on M: velvetleaf [2] | herbicidal effect on G: green foxtail [3] | R: persian speedwell, herbicidal effect (criteria 0-5) [4] | herbicidal effect on H: barnyard grass [5] | Herbicidal effect on C: oval-leafed pondweed (grade 0-5) [6] | herbicidal effect on N: redroot pigweed [7] | Herbicidal effect on B: Japanese bulrush (grade 0-5) [8] | G: green foxtail, herbicidal effect (criteria 0-5) [9] | herbicidal effect rating, C: oval-leafed pondweed [10] | herbicidal effect rating, B: Japanese bulrush [11] | F: southern crabgrass, herbicidal effect (criteria 0-5) [12] | J: blackgrass, herbicidal effect (criteria 0-5) [13] | herbicidal effect on H: barnyard grass [14] | M: velvetleaf, herbicidal effect (criteria 0-5) [15] | herbicidal effect on J: blackgrass [16] | L: windgrass, herbicidal effect (criteria 0-5) [17]
COCCOC(=O)Oc1c(C)nn(C)c(=O)c1-c1c(-c2ccc(OC(F)F)cc2)sc2ccc(F)cc12 [2-295] | 5 (Herbicidal rate of 90% or more (almost completely withered)) | 4 (Herbicidal rate of 70% or more and less than 90%) | 5 (Herbicidal rate of 90% or more (almost completely withered)) | 5 (Herbicidal rate of 90% or more (almost completely withered)) | 5 (Herbicidal rate of 90% or more (almost completely withered)) | 2 (Herbicidal rate of 20% or more and less than 40%) | 5 (Herbicidal rate of 90% or more (almost completely withered)) | 3 (Herbicidal rate of 40% or more and less than 70%) | 5 (Herbicidal rate of 90% or more (almost completely withered)) | 3 (Herbicidal rate of 40% or more and less than 70%) | 3 (Herbicidal rate of 40% or more and less than 70%) | 4 (Herbicidal rate of 70% or more and less than 90%) | 4 (Herbicidal rate of 70% or more and less than 90%) | 5 (Herbicidal rate of 90% or more (almost completely withered)) | 5 (Herbicidal rate of 90% or more (almost completely withered)) | 4 (Herbicidal rate of 70% or more and less than 90%) | 5 (Herbicidal rate of 90% or more (almost completely withered))
COc1cccc(S(=O)(=O)Oc2c(C)nn(C)c(=O)c2-c2c(-c3ccc(OC(F)F)cc3)sc3ccc(F)cc23)c1 [2-313] | 5 (Herbicidal rate of 90% or more (almost completely withered)) | 4 (Herbicidal rate of 70% or more and less than 90%) | 2 (Herbicidal rate of 20% or more and less than 40%) | 5 (Herbicidal rate of 90% or more (almost completely withered)) | 1 (Herbicidal rate of 5% or more and less than 20%) | 0 (Herbicidal rate of 5% or less (almost no effect)) | 5 (Herbicidal rate of 90% or more (almost completely withered)) | 3 (Herbicidal rate of 40% or more and less than 70%) | 5 (Herbicidal rate of 90% or more (almost completely withered)) | 3 (Herbicidal rate of 40% or more and less than 70%) | 3 (Herbicidal rate of 40% or more and less than 70%) | 4 (Herbicidal rate of 70% or more and less than 90%) | 4 (Herbicidal rate of 70% or more and less than 90%) | 5 (Herbicidal rate of 90% or more (almost completely withered)) | 5 (Herbicidal rate of 90% or more (almost completely withered)) | 0 (Herbicidal rate of 5% or less (almost no effect)) | 2 (Herbicidal rate of 20% or more and less than 40%)
C#CCSCc1ccc(-c2sc3ccc(F)cc3c2-c2c(O)c(C)nn(C)c2=O)cc1 [2-325] | 5 (Herbicidal rate of 90% or more (almost completely withered)) | 0 (Herbicidal rate of 5% or less (almost no effect)) | 2 (Herbicidal rate of 20% or more and less than 40%) | 5 (Herbicidal rate of 90% or more (almost completely withered)) | 3 (Herbicidal rate of 40% or more and less than 70%) | 0 (Herbicidal rate of 5% or less (almost no effect)) | 4 (Herbicidal rate of 70% or more and less than 90%) | 2 (Herbicidal rate of 20% or more and less than 40%) | 5 (Herbicidal rate of 90% or more (almost completely withered)) | 0 (Herbicidal rate of 5% or less (almost no effect)) | 2 (Herbicidal rate of 20% or more and less than 40%) | 5 (Herbicidal rate of 90% or more (almost completely withered)) | 4 (Herbicidal rate of 70% or more and less than 90%) | 5 (Herbicidal rate of 90% or more (almost completely withered)) | 5 (Herbicidal rate of 90% or more (almost completely withered)) | 0 (Herbicidal rate of 5% or less (almost no effect)) | 5 (Herbicidal rate of 90% or more (almost completely withered))
Cc1nn(C)c(=O)c(-c2c(-c3ccc(CSCC(F)(F)F)cc3)sc3ccc(F)cc23)c1O [2-331] | 4 (Herbicidal rate of 70% or more and less than 90%) | 2 (Herbicidal rate of 20% or more and less than 40%) | 4 (Herbicidal rate of 70% or more and less than 90%) | 5 (Herbicidal rate of 90% or more (almost completely withered)) | 3 (Herbicidal rate of 40% or more and less than 70%) | 0 (Herbicidal rate of 5% or less (almost no effect)) | 5 (Herbicidal rate of 90% or more (almost completely withered)) | 3 (Herbicidal rate of 40% or more and less than 70%) | 5 (Herbicidal rate of 90% or more (almost completely withered)) | 0 (Herbicidal rate of 5% or less (almost no effect)) | 0 (Herbicidal rate of 5% or less (almost no effect)) | 5 (Herbicidal rate of 90% or more (almost completely withered)) | 4 (Herbicidal rate of 70% or more and less than 90%) | 5 (Herbicidal rate of 90% or more (almost completely withered)) | 5 (Herbicidal rate of 90% or more (almost completely withered)) | 0 (Herbicidal rate of 5% or less (almost no effect)) | 4 (Herbicidal rate of 70% or more and less than 90%)
